Results published in US9828379B2 (priority 2013, dated 2017).

Key:
Assay in all cases: In vitro competitive activity-based protein profiling (Table 2, % inhibition at 1 μM)
Assay type in all cases: biochemical
FAAH = target: T1, FAAH (Mus musculus, UniProt O08914); conditions: read-out: % Inhibition at 1 μM FAAH
T1 sequence (O08914 1-579): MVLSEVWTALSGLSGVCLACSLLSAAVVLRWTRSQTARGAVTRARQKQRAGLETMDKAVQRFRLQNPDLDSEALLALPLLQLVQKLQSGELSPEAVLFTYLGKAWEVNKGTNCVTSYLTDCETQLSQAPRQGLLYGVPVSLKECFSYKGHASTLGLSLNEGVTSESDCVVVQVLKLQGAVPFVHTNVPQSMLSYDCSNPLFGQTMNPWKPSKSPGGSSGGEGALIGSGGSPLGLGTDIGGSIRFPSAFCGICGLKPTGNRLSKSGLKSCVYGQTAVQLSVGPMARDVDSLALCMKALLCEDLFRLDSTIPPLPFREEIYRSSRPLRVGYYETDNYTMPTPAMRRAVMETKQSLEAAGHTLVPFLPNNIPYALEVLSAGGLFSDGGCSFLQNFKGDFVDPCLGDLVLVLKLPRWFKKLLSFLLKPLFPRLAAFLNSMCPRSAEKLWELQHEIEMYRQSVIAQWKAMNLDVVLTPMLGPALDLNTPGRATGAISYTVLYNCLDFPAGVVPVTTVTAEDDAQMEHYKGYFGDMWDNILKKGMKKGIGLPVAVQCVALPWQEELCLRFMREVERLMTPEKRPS
Protocol: (§1) After 30 min, FP—Rh (1.0 μL, 50 μM in DMSO) was added and the mixture was incubated for another 30 min at 37° C. Reactions were quenched with SDS loading buffer (50 μL-4×) and run on SDS-PAGE. Following gel imaging, serine hydrolase activity was determined by measuring fluorescent intensity of gel bands corresponding to MAGL, ABHD6 and FAAH using ImageJ 1.43 u software.
(§2) hMAGL was expressed in HEK293T cells according to previously reported methods (see Niphakis, Long, and Blankman, J. L., et al. (2007) Chem. Biol. 14:1347-1356). Cell lysates were diluted with mock proteomes for use in competitive ABPP experiments.

ABHD6 = target: T2, ABHD6 (Mus musculus, UniProt Q8R2Y0); conditions: read-out: % Inhibition at 1 μM ABHD6
T2 sequence (Q8R2Y0 1-336): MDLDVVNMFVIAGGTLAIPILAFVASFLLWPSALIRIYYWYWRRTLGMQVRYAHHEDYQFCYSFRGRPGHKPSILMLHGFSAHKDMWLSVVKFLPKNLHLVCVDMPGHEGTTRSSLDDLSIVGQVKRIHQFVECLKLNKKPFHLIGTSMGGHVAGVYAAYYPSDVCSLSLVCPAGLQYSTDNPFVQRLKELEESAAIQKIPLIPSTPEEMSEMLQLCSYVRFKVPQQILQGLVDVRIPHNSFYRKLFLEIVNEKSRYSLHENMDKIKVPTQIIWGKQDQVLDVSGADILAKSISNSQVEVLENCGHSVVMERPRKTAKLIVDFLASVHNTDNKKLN
Protocol: as §1, §2

MAGL = target: T3, MAGL (Mus musculus, UniProt O35678); conditions: read-out: % Inhibition at 1 μM MAGL
T3 sequence (O35678 1-303): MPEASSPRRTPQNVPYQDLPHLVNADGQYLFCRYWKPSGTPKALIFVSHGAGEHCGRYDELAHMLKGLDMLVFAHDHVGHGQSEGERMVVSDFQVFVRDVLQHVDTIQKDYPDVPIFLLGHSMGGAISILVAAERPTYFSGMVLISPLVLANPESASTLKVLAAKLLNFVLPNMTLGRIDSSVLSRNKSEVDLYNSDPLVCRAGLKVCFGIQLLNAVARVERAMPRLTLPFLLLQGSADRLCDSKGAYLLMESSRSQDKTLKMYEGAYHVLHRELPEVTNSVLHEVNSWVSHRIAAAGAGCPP
Protocol: After 30 min, FP—Rh (1.0 μL, 50 μM in DMSO) was added and the mixture was incubated for another 30 min at 37° C. Reactions were quenched with SDS loading buffer (50 μL-4×) and run on SDS-PAGE.
Cell lysates were diluted with mock proteomes for use in competitive ABPP experiments.

Structure (SMILES) | inhibition at 1 µM (FAAH) [%] | inhibition at 1 µM (ABHD6) [%] | inhibition at 1 µM (MAGL) [%]
Cc1c(CN2CC3CN(C(=O)ON4C(=O)CCC4=O)CC3C2)cccc1N1CCN(S(C)(=O)=O)CC1 (stereo not drawn) [Example 141, 2,5-dioxopyrrolidin-1-yl 5-[[3-(4-methanesulfonylpiperazin-1-yl)-2-methylphenyl]methyl]-octahydropyrrolo[3,4-c]pyrrole-2-carboxylate] | < 25 | < 25 | 25 to 75
CC(=O)N1CCN(c2cc(C(C)C)ccc2CN2CC3CN(C(=O)ON4C(=O)CCC4=O)CC3C2)CC1 (stereo not drawn) [Example 99, 2,5-Dioxopyrrolidin-1-yl 5-[[2-(4-acetylpiperazin-1-yl)-4-(propan-2-yl)phenyl]methyl]-octahydropyrrolo[3,4-c]pyrrole-2-carboxylate] | < 25 | < 25 | < 25
Cn1nc(-c2ccccc2)cc1CN1CC2CN(C(=O)ON3C(=O)CCC3=O)CC2C1 (stereo not drawn) [Example 197, 2,5-dioxopyrrolidin-1-yl 5-((1-methyl-3-phenyl-1H-pyrazol-5-yl)methyl)hexahydropyrrolo[3,4-c]pyrrole-2(1H)-carboxylate] | < 25 | < 25 | < 25
CCn1cc(CN2CC3CN(C(=O)OC(C(F)(F)F)C(F)(F)F)CC3C2)c(-c2ccccn2)n1 (stereo not drawn) [Example 70, 1,1,1,3,3,3-Hexafluoropropan-2-yl 5-[[1-ethyl-3-(pyridin-2-yl)-1H-pyrazol-4-yl]methyl]-octahydropyrrolo[3,4-c]pyrrole-2-carboxylate] | < 25 | < 25 | 25 to 75
CC(C)n1cc(CN2CC3CN(C(=O)ON4C(=O)CCC4=O)CC3C2)c(-c2ccccc2)n1 (stereo not drawn) [Example 117, 2,5-Dioxopyrrolidin-1-yl 5-[[3-phenyl-1-(propan-2-yl)-1H-pyrazol-4-yl]methyl]-octahydropyrrolo[3,4-c]pyrrole-2-carboxylate] | < 25 | 25 to 75 | 25 to 75
CC1COCCN1c1cc(F)ccc1CN1CC2CN(C(=O)ON3C(=O)CCC3=O)CC2C1 (stereo not drawn) [Example 91, 2,5-Dioxopyrrolidin-1-yl 5-[[4-fluoro-2-(3-methylmorpholin-4-yl)phenyl]methyl]-octahydropyrrolo[3,4-c]pyrrole-2-carboxylate] | < 25 | < 25 | < 25
Cc1cc(CN2CC3CN(C(=O)ON4C(=O)CCC4=O)CC3C2)n(C(C)C)n1 (stereo not drawn) [Example 121, 2,5-Dioxopyrrolidin-1-yl 5-[[3-methyl-1-(propan-2-yl)-1H-pyrazol-5-yl]methyl]-octahydropyrrolo[3,4-c]pyrrole-2-carboxylate] | < 25 | < 25 | < 25
O=C(OC(C(F)(F)F)C(F)(F)F)N1CC2CN(Cc3ccc(F)cc3N3CCOCC3)CC2C1 (stereo not drawn) [Example 14, 1,1,1,3,3,3-Hexafluoropropan-2-yl 5-[[4-fluoro-2-(morpholin-4-yl)phenyl]methyl]-octahydropyrrolo[3,4-c]pyrrole-2-carboxylate] | 25 to 75 | < 25 | > 75
CC1COCCN1c1ccc(CN2CC3CN(C(=O)ON4C(=O)CCC4=O)CC3C2)c(F)c1 (stereo not drawn) [Example 100, 2,5-Dioxopyrrolidin-1-yl 5-[[2-fluoro-4-(3-methylmorpholin-4-yl)phenyl]methyl]-octahydropyrrolo[3,4-c]pyrrole-2-carboxylate] | < 25 | < 25 | 25 to 75
O=C(ON1C(=O)CCC1=O)N1CC2CN(Cc3ccc(F)cc3N3CCOCC3)CC2C1 (stereo not drawn) [Example 89, 2,5-Dioxopyrrolidin-1-yl 5-[[4-fluoro-2-(morpholin-4-yl)phenyl]methyl]-octahydropyrrolo[3,4-c]pyrrole-2-carboxylate] | < 25 | < 25 | < 25
O=C(ON1C(=O)CCC1=O)N1CC2CN(Cc3ccc(C(=O)N4CCCC4)cc3Cl)CC2C1 (stereo not drawn) [Example 164, 2,5-dioxopyrrolidin-1-yl 5-(2-chloro-4-(pyrrolidine-1-carbonyl)benzyl)-hexahydropyrrolo[3,4-c]pyrrole-2(1H)-carboxylate] | < 25 | 25 to 75 | 25 to 75
Cc1cccc(CN2CC3CN(C(=O)ON4C(=O)CCC4=O)CC3C2)c1N1CCCCC1 (stereo not drawn) [Example 105, 2,5-Dioxopyrrolidin-1-yl 5-[[3-methyl-2-(piperidin-1-yl)phenyl]methyl]-octahydropyrrolo[3,4-c]pyrrole-2-carboxylate] | < 25 | < 25 | 25 to 75
CCN1CCN(c2c(C)cccc2CN2CC3CN(C(=O)ON4C(=O)CCC4=O)CC3C2)CC1 (stereo not drawn) [Example 139, 2,5-dioxopyrrolidin-1-yl 5-[[2-(4-ethylpiperazin-1-yl)-3-methylphenyl]methyl]-octahydropyrrolo[3,4-c]pyrrole-2-carboxylate] | < 25 | < 25 | < 25
CC(=O)N1CCC(c2nn(C)cc2CN2CC3CN(C(=O)OC(C(F)(F)F)C(F)(F)F)CC3C2)CC1 (stereo not drawn) [Example 52, 1,1,1,3,3,3-Hexafluoropropan-2-yl 5-[[3-(1-acetylpiperidin-4-yl)-1-methyl-1H-pyrazol-4-yl]methyl]-octahydropyrrolo[3,4-c]pyrrole-2-carboxylate] | < 25 | < 25 | 25 to 75
CCN1CCN(c2cccc(CN3CC4CN(C(=O)ON5C(=O)CCC5=O)CC4C3)c2C)CC1 (stereo not drawn) [Example 146] | < 25 | < 25 | 25 to 75
Cn1cc(CN2CC3CN(C(=O)OC(C(F)(F)F)C(F)(F)F)CC3C2)c(C2CCN(S(C)(=O)=O)CC2)n1 (stereo not drawn) [Example 56, 1,1,1,3,3,3-Hexafluoropropan-2-yl 5-[[3-(1-methanesulfonylpiperidin-4-yl)-1-methyl-1H-pyrazol-4-yl]methyl]-octahydropyrrolo[3,4-c]pyrrole-2-carboxylate] | < 25 | < 25 | > 75
O=C(ON1C(=O)CCC1=O)N1CC2CN(Cc3ccc(F)cc3N3CCCC3)CC2C1 (stereo not drawn) [Example 90, 2,5-Dioxopyrrolidin-1-yl 5-[[4-fluoro-2-(pyrrolidin-1-yl)phenyl]methyl]-octahydropyrrolo[3,4-c]pyrrole-2-carboxylate] | 25 to 75 | < 25 | 25 to 75
O=C(ON1C(=O)CCC1=O)N1CC2CN(Cc3ccc(Cl)cc3N3CCN4CCC[C@@H]4C3)CC2C1 (stereo partly drawn) [Example 109, 2,5-Dioxopyrrolidin-1-yl 5-(4-chloro-2-((R)-hexahydropyrrolo[1,2-a]pyrazin-2(1H)-yl)benzyl)-hexahydropyrrolo[3,4-c]pyrrole-2(1H)-carboxylate] | < 25 | < 25 | < 25
O=C(OC(C(F)(F)F)C(F)(F)F)N1CC2CN(Cc3ccc(C(=O)N4CCOCC4)c(OC(F)(F)F)c3)CC2C1 (stereo not drawn) [Example 191, 1,1,1,3,3,3-hexafluoropropan-2-yl 5-(4-(morpholine-4-carbonyl)-3-(trifluoromethoxy)benzyl)hexahydropyrrolo[3,4-c]pyrrole-2(1H)-carboxylate] | < 25 | < 25 | < 25
